Drawing on BindingDB's records for doi:10.1021/jm001024j (Uppsala University, 2001), this text covers Ki for 20 compounds.

The experiment concerns the target T1, Dimer of Gag-Pol polyprotein [489-587] (Human immunodeficiency virus 1, UniProt P12497).
T1 construct: 489-587
Put plainly: Protease Inhibition Assay. As to conditions: pH 5; 30 °C.
For the compound `O=S1(=O)N(Cc2ccc(CO)cc2)[C@H](COc2ccccc2)[C@H](O)[C@@H](O)[C@@H](COc2ccccc2)N1Cc1ccc(CO)cc1`, the Ki was 3.1 nM.
With `O=S1(=O)N(Cc2ccc(-c3cccs3)cc2)[C@H](COc2ccccc2)[C@H](O)[C@@H](O)[C@@H](COc2ccccc2)N1Cc1ccc(-c2cccs2)cc1` [(3R,4S,5S,6R)-4,5-dihydroxy-3,6-bis(phenoxymethyl)-2,7-bis({[4-(thiophen-2-yl)phenyl]methyl})-1,2,7-thiadiazepane-1,1-dione] the figure was 920 nM; with `CN1[C@H](COc2ccccc2)[C@H](O)[C@@H](O)[C@@H](COc2ccccc2)N(Cc2ccccc2)S1(=O)=O` [(3R,4S,5S,6R)-3,6-Bis(phenoxymethyl)-4,5-dihydroxy-7-methyl-2-benzyl-1,2,7-thiadiazepine 1,1-Dioxide], 510 nM; with `O=S1(=O)N(Cc2ccc(-c3cccs3)cc2)[C@H](COc2ccccc2)[C@H](O)[C@@H](O)[C@@H](COc2ccccc2)N1Cc1cccc(-c2cccs2)c1` [(3R,4S,5S,6R)-4,5-dihydroxy-3,6-bis(phenoxymethyl)-7-{[3-(thiophen-2-yl)phenyl]methyl}-2-{[4-(thiophen-2-yl)phenyl]methyl}-1,2,7-thiadiazepane-1,1-dione], 6000 nM.
With `O=C(CN1[C@H](COc2ccccc2)[C@H](O)[C@@H](O)[C@@H](COc2ccccc2)N(Cc2ccccc2)S1(=O)=O)Nc1nccs1` [(3R,4S,5S,6R)-3,6-Bis(phenoxymethyl)-4,5-dihydroxy-7-benzyl-2-[(N-2-thiazolylcarbamoyl)methyl]-1,2,7-thiadiazepine 1,1-Dioxide] the figure was 350 nM; with `COC(Cc1cccc(CN2[C@H](COc3ccccc3)[C@H](O)[C@@H](O)[C@@H](COc3ccccc3)N(Cc3cccc(CC(OC)OC)c3)S2(=O)=O)c1)OC` [(3R,4S,5S,6R)-2,7-bis({[3-(2,2-dimethoxyethyl)phenyl]methyl})-4,5-dihydroxy-3,6-bis(phenoxymethyl)-1,2,7-thiadiazepane-1,1-dione], 540 nM; with `COC(=O)c1ccc(CN2[C@H](COc3ccccc3)[C@H](O)[C@@H](O)[C@@H](COc3ccccc3)N(Cc3ccc(C(=O)OC)cc3)S2(=O)=O)cc1`, 84 nM.
`CC(=O)c1cccc(CN2[C@H](COc3ccccc3)[C@H](O)[C@@H](O)[C@@H](COc3ccccc3)N(Cc3cccc(C(C)=O)c3)S2(=O)=O)c1` returned a Ki of 59 nM.
Under `O=S1(=O)N(Cc2cccc(-c3cccs3)c2)[C@H](COc2ccccc2)[C@H](O)[C@@H](O)[C@@H](COc2ccccc2)N1Cc1cccc(-c2cccs2)c1` [(3R,4S,5S,6R)-3,6-Bis(phenoxymethyl)-2,7-bis[3-(2-thienyl)benzyl]-4,5-dihydroxy-1,2,7-thiadiazepine 1,1-Dioxide] stands 2200 nM; under `CNC(=O)CN1[C@H](COc2ccccc2)[C@H](O)[C@@H](O)[C@@H](COc2ccccc2)N(Cc2ccccc2)S1(=O)=O` [2-[(3R,4S,5S,6R)-7-benzyl-4,5-dihydroxy-1,1-dioxo-3,6-bis(phenoxymethyl)-1,2,7-thiadiazepan-2-yl]-N-methylacetamide], 1400 nM.
`CC(N=O)c1cccc(CN2[C@H](COc3ccccc3)[C@H](O)[C@@H](O)[C@@H](COc3ccccc3)N(Cc3cccc(C(C)N=O)c3)S2(=O)=O)c1` (stereo not given in full) displayed a Ki of 3.4 nM.
In the case of `CNC(=O)c1cccc(CN2[C@H](COc3ccccc3)[C@H](O)[C@@H](O)[C@@H](COc3ccccc3)N(Cc3cccc(C(=O)NC)c3)S2(=O)=O)c1` [(3R,4S,5S,6R)-2,7-Bis[3-(N-methylcarbamoyl)benzyl]-3,6-bis(phenoxymethyl)-4,5-dihydroxy-1,2,7-thiadiazepine 1,1-Dioxide], the Ki is 39 nM.
In the case of `O=S1(=O)N(Cc2ccccc2)[C@H](COc2ccccc2)[C@H](O)[C@@H](O)[C@@H](COc2ccccc2)N1Cc1ccc(-c2cccs2)cc1` [(3R,4S,5S,6R)-2-benzyl-4,5-dihydroxy-3,6-bis(phenoxymethyl)-7-{[4-(thiophen-2-yl)phenyl]methyl}-1,2,7-thiadiazepane-1,1-dione], the Ki was 63 nM.
For `O=C(CN1[C@H](COc2ccccc2)[C@H](O)[C@@H](O)[C@@H](COc2ccccc2)N(Cc2cccc(I)c2)S1(=O)=O)Nc1nccs1` [(3R,4S,5S,6R)-3,6-Bis(phenoxymethyl)-4,5-dihydroxy-7-(3-iodobenzyl)-2-[(N-2-thiazolylcarbamoyl)methyl]-1,2,7-thiadiazepine 1,1-Dioxide], the Ki turned out to be 510 nM.
Consider `O=C(CN1[C@H](COc2ccccc2)[C@H](O)[C@@H](O)[C@@H](COc2ccccc2)N(Cc2cccc(-c3cccs3)c2)S1(=O)=O)Nc1nccs1` [(3R,4S,5S,6R)-3,6-Bis(phenoxymethyl)-4,5-dihydroxy-2-[(N-2-thiazolylcarbamoyl)methyl]-7-[3-(2-thienyl)benzyl]-1,2,7-thiadiazepine 1,1-Dioxide], for which the Ki is 140 nM.
Regarding `O=S1(=O)N(Cc2cccc(I)c2)[C@H](COc2ccccc2)[C@H](O)[C@@H](O)[C@@H](COc2ccccc2)N1Cc1cccc(I)c1`, the Ki was 93 nM.
The compound `O=S1(=O)N(Cc2cccc(CCO)c2)[C@H](COc2ccccc2)[C@H](O)[C@@H](O)[C@@H](COc2ccccc2)N1Cc1cccc(CCO)c1` yielded a Ki of 43 nM. Against the preceding compound, the Ki is about 2.2-fold lower.
Compound `CNC(=O)CN1[C@H](COc2ccccc2)[C@H](O)[C@@H](O)[C@@H](COc2ccccc2)N(CC(=O)NC)S1(=O)=O` [(3R,4S,5S,6R)-2,7-Bis[(N-methylcarbamoyl)methyl]-3,6-bis(phenoxymethyl)-4,5-dihydroxy-1,2,7-thiadiazepine 1,1-Dioxide] yielded a Ki of 25000 nM.
For the compound `O=C(CN1[C@H](COc2ccccc2)[C@H](O)[C@@H](O)[C@@H](COc2ccccc2)N(Cc2ccc(-c3cccs3)cc2)S1(=O)=O)Nc1nccs1` [2-[(3R,4S,5S,6R)-4,5-dihydroxy-1,1-dioxo-3,6-bis(phenoxymethyl)-7-{[4-(thiophen-2-yl)phenyl]methyl}-1,2,7-thiadiazepan-2-yl]-N-(1,3-thiazol-2-yl)acetamide], the Ki came to 1800 nM.
On to `CN1[C@H](COc2ccccc2)[C@H](O)[C@@H](O)[C@@H](COc2ccccc2)N(C)S1(=O)=O` [(3R,4S,5S,6R)-2,7-Bismethyl-3,6-bis(phenoxymethyl)-4,5-dihydroxy-1,2,7-thiadiazepine 1,1-Dioxide], for which the Ki came out at 710 nM.
